Here are results for one compound from ChEMBL document CHEMBL2440116, “Structure-activity relationships of 2-aminothiazoles effective against Mycobacterium tuberculosis” (Bioorg Med Chem, 2013).

In the assay the test system is Mycobacterium tuberculosis. The assay is described as follows: Induction of resistant in Mycobacterium tuberculosis H37Rv in Middlebrook 7H9 broth with glucose at 10 times MIC after 4 to 5 weeks relative to control. It is filed as functional.

As to `O=C(Nc1nc(-c2ccccn2)cs1)c1cccc(Br)c1`, the “fold change (FC)” value worked out at 2.
